Measurements as given in US12310948B2, “Application of monocyclic β-lactam compound in pharmacy” (SHENZHEN OPTIMUM BIOLOGICAL TECHNOLOGY CO., LTD, priority 2018, dated 2025).
Marks after values point to notes of the source that are not given here.

Tests used:
[1] = system: Pseudomonas aeruginosa PA14; assay: Pulmonary Pseudomonas aeruginosa infection in immunosuppressive mice: lung bacterial load; type: in vivo; details: for LOG10 of Bacterial load: lung tissue 24 h after infection, immunosuppressed CD-1 mice, ip at 2 h, 4 h, 6 h, 8 h
Procedure: Pseudomonas aeruginosa PA14.
(§1) 46 female CD-1 (ICR) mice, supplied by Beijing Vital River Laboratory Animal Technology Co., Ltd., body weight of 23-27 g, 7 weeks old.
46 immunosuppressive mice were formed by intraperitoneal injection of cyclophosphamide 150 mg/kg on day 1 and day 4.
Seven groups were set up, including high, medium and low dose groups of compound represented by formula (I), high and medium-dose groups of compound I-g, aztreonam group and model group; there were 6 animals in each group, the other 4 animals were subjected to pulmonary infection for 2 h, and the lung tissues were removed to count the bacterial load. See the table below for specific grouping.
Mice were injected intratracheally with 50 μL of bacterial fluid (2×10^3 CFU). Four model mice were sacrificed 2 h after infection.
2 h after infection, the mice were injected intraperitoneally once at 2 h, 4 h, 6 h and 8 h according to the groups, for a total of 4 times.
24 h after infection, the mice in each group were sacrificed by cervical dislocation, and the lung and kidney tissues were removed aseptically, then placed into sterilized homogenate tube, weighed, added with proper amount of normal saline (NS), and homogenized by a homogenizer for 1 min; the lung tissues in model group were diluted 10^4, 10^5, and 10^6-fold, the lung tissues in each administration group were diluted 10 and 100-fold, the kidney tissues in model group were diluted 10^2, 10^3, and 10^4-fold, and the lung tissues in each administration group were diluted 10-fold; the serial diluents were plated onto TSA plates with a spiral coater, and incubated overnight at 37° C. to determine CFU counts with a colony counter.
(§2) CFU scatter plots of lung tissue were made using Graphpad Prism mapping software. The average CFU and body weight were calculated by SPSS 19.0 software, and the differences between groups were analyzed by variance analysis.
Mice were injected intraperitoneally with compounds of formula (I), compound I-g and aztreonam at 2 h, 4 h, 6 h and 8 h after infection; animals were sacrificed at 24 h, lung tissues were removed aseptically, immersed in normal saline (NS), homogenized, diluted appropriately, and then 50 μL of diluents were evenly plated onto TSA plates; the plates were incubated overnight in a 37° C. incubator to count the number of colonies, which was converted to CFU per milliliter by a dilution ratio, and logarithmic value of the bacterial load was calculated of base 10, and the mean and standard deviation were compared in each group.

[2] = Animal body weight in the in vivo protection test (pulmonary infection in mice); details: for Weight on day 1 / Weight on day 4 / Weight on day 5: ip
Procedure: as §1
The mice were weighed each day after the start of the test and body weight changes were recorded.
as §2

| Compound | LOG10 of Bacterial load ([1]; total dose 400 mg/kg day) | Weight on day 1 ([2]; 400 mg/kg day group) [g] | Weight on day 4 ([2]; 400 mg/kg day group) [g] | Weight on day 5 ([2]; 400 mg/kg day group) [g] | Elimination of the bacteria infected on the lung (in words) ([1]; at the lowest dose) | Elimination of bacterial load in lung tissue (in words) ([1]; high, middle and low-dose groups, 24 h after infection) | LOG10 of Bacterial load ([1]; total dose 60 mg/kg day) | LOG10 of Bacterial load ([1]; total dose 120 mg/kg day) | LOG10 of Bacterial load ([1]; total dose 200 mg/kg day) | Weight on day 1 ([2]; 60 mg/kg day group) [g] | Weight on day 4 ([2]; 60 mg/kg day group) [g] | Weight on day 5 ([2]; 60 mg/kg day group) [g] | Weight on day 1 ([2]; 120 mg/kg day group) [g] | Weight on day 4 ([2]; 120 mg/kg day group) [g] | Weight on day 5 ([2]; 120 mg/kg day group) [g] | Weight on day 1 ([2]; 200 mg/kg day group) [g] | Weight on day 4 ([2]; 200 mg/kg day group) [g] | Weight on day 5 ([2]; 200 mg/kg day group) [g] | Safety conclusion from body weight (in words) ([2]; administration group) |
| --- | --- | --- | --- | --- | --- | --- | --- | --- | --- | --- | --- | --- | --- | --- | --- | --- | --- | --- | --- |
| C[C@H]1[C@H](NC(=O)/C(=N\OC(C)(C)C(=O)O)c2csc(N)n2)C(=O)N1S(=O)(=O)O [Aztreonam, aztreonam, reference compound] | 1.62 ± 2.22 | 27.16 ± 1.74 | 27.80 ± 2.37 | 28.02 ± 1.08 | – | – | – | – | – | – | – | – | – | – | – | – | – | – | – |
| CC1(C)[C@H](NC(=O)/C(=N\O[C@@H](COc2ccc3c(c2)CN(C(=N)N(CCCN)CCCN)C3)C(=O)O)c2csc(N)n2)C(=O)N1OS(=O)(=O)O [Compound represented by formula (I)] | – | – | – | – | completely eliminated | completely eliminated | 0** | 0** | 0** | 26.14 ± 1.21 | 27.76 ± 0.43 | 26.77 ± 1.02 | 26.47 ± 1.65 | 28.33 ± 1.14 | 28.01 ± 1.35 | 26.91 ± 1.03 | 28.03 ± 2.15 | 25.40 ± 2.75 | safe |
| CC1(C)[C@H](NC(=O)/C(=N\O[C@@H](COc2ccc(C(=N)N[C@@H]3CCCNC3)cc2)C(=O)O)c2csc(N)n2)C(=O)N1OS(=O)(=O)O [I-g, reference compound] | – | – | – | – | – | – | – | 1.58 ± 2.45 | 0** | – | – | – | 27.02 ± 1.12 | 28.21 ± 1.16 | 27.20 ± 0.96 | 27.25 ± 1.14 | 28.39 ± 1.60 | 26.43 ± 1.06 | – |
